Here are results for 13 molecules from US20240025887A1, “THIENYL AND CYCLOALKYL AMINOPYRIMIDINE COMPOUNDS AS INHIBITORS OF NUAK KINASES, COMPOSITIONS AND USES THEREOF” (Ontario Institute for Cancer Research (OICR), priority 2021, published 2024).

For one test, the target named is T1, NUAK2 (h) (Homo sapiens, UniProt Q9H093).
T1 construct: This assay was done radiometrically using full-length, recombinant enzyme; purchased Eurofins
T1 sequence (Q9H093 1-628): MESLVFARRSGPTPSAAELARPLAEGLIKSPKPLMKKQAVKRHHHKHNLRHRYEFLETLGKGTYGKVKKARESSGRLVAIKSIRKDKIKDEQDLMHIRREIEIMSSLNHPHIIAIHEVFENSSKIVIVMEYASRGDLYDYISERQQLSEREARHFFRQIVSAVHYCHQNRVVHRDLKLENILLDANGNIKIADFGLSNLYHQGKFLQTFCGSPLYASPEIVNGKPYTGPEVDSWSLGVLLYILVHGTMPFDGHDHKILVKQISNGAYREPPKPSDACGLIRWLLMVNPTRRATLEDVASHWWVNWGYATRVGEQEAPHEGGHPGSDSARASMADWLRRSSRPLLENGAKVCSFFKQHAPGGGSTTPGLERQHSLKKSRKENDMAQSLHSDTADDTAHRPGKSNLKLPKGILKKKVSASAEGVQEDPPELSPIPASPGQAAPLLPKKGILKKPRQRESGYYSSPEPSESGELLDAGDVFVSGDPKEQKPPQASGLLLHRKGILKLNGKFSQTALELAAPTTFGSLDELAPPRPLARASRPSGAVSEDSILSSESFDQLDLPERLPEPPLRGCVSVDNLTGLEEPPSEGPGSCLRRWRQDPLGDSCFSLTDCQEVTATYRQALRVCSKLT
Nature of the test: NUAK2 enzymatic assay (radiometric, Eurofins). Format: biochemical. Particulars: for IC50: radiometric, full-length recombinant enzyme; for AUR-A (IC50, nM)/NUAK2 (IC50, nM): NUAK2 selectivity over Aurora-A, ratio of IC50s. Put shortly:
(§1)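 Radiometric assay with full-length recombinant NUAK2 in 8 mM MOPS pH 7.0, 0.2 mM EDTA, 10 mM magnesium acetate, 300 μM peptide substrate and [33P]-ATP, 40 min at room temperature. Phosphoric acid stop, filter capture, scintillation counting. Aurora A and NUAK1 used as counter screens.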

Another test addresses T2, NUAK1 (Homo sapiens, UniProt O60285).
T2 sequence (O60285 1-661): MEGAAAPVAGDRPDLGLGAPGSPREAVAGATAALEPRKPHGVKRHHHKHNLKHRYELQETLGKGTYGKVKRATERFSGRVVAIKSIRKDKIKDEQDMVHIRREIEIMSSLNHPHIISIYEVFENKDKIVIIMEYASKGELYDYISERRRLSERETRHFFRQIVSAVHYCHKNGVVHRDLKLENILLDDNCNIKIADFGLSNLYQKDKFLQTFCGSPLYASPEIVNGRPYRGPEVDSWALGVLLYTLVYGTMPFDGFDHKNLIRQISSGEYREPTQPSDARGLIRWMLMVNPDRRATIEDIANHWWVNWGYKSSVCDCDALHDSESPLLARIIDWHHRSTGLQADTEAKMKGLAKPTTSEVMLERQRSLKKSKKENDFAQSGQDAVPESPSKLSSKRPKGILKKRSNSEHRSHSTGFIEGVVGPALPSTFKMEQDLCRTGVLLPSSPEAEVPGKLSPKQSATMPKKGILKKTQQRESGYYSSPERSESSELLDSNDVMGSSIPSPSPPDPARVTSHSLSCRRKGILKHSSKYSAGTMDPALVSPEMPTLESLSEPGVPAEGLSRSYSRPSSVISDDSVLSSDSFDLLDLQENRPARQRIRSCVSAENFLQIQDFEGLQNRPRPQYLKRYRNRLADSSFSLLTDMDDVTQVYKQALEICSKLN
The test can be described thus: NUAK1 counter screen. In kind it is biochemical. Put shortly:
as §1
(In general: The purpose of a counterscreen is to sort out artefacts and off-target activity.)

The target in the next test is T3, Aurora A (Homo sapiens, UniProt O14965).
T3 sequence (O14965 1-403): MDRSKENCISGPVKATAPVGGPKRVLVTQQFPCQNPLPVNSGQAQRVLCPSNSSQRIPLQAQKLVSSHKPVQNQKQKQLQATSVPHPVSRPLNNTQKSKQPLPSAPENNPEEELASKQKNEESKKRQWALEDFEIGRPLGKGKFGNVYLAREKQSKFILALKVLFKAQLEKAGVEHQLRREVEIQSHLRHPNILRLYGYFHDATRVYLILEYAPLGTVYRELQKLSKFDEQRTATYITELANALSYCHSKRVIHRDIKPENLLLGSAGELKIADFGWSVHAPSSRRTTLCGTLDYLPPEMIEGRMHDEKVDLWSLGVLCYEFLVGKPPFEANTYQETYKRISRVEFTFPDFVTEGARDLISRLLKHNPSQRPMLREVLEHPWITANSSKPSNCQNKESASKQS
Nature of the test: Aurora A counter screen. In kind it is biochemical. Particulars: read-out: AUR-A (IC50). Put shortly: as §1

The next test deals with MDA-MB-231 cells. Nature of the test: Tumor cell growth inhibition assay (ATPlite). In kind it is cell-based. The conditions noted are these: Homo sapiens, 120 h, MDA-MB-231 breast tumor cell line, 5 days. On the procedure: MDA-MB-231 cells were seeded into a 384-well plate at 1,000 cells/well in 50 μl medium (Alpha-MEM containing 10% FBS, […] Normocin, Invivogen and […] Gentamycin, Invitrogen). Plates were then incubated overnight for the cells to attach. An HP D300 digital dispenser was used to dose cells with DMSO or test compounds across a 16-point range of concentrations (high dose of 10 uM to low dose of 5 nM). Plates were incubated in a humidified 5% CO2 incubator at 37° C. After 5 days, plates were removed from the incubator and equilibrated to room temperature. An equal volume of ATPlite assay reagent was then added to each well, and samples processed according to manufacturer's instructions (Perkin Elmer). Luminescent signals were then measured using an Envision plate reader equipped with a US-Luminescence detector.
(Cellular ATP, detected with luciferase, serves as a proxy for viable cell number.)

SMILES strings stand for the structures. Where only a bound is given, the exact number is not on record here.

A word on the IC50: it is the concentration needed to halve the response being measured. On to `CN1C2CCC1CN(c1ccc(Nc3ncc(Cl)c(Nc4ccsc4C(N)=O)n3)c(OC(F)F)c1)C2` [Compound I-30, 3-((5-chloro-2-((2-(difluoromethoxy)-4-(8-methyl-3,8-diazabicyclo[3.2.1]octan-3-yl)phenyl)amino)pyrimidin-4-yl)amino)thiophene-2-carboxamide], for which the half-maximal inhibitory concentration (IC50) is 0.0001 to 0.01 µM on NUAK2 (h), 0.011 to 0.1 µM at NUAK1, 0.101 to 1 µM on Aurora A and 0.144 µM in the test with MDA-MB-231 cells.
Consider `CN1CCN(c2ccc(Nc3ncc(C#N)c(Nc4ccsc4C(N)=O)n3)c(OC(F)F)c2)CC1` [Compound I-38, 3-((5-cyano-2-((2-(difluoromethoxy)-4-(4-methylpiperazin-1-yl)phenyl)amino)pyrimidin-4-yl)amino)thiophene-2-carboxamide], for which the IC50 at NUAK2 (h) is 0.0001 to 0.01 µM; on NUAK1 it was 0.011 to 0.1 µM; on Aurora A it was 0.101 to 1 µM; with MDA-MB-231 cells, 0.12 µM.
For `CN1CCN(C2CCN(c3ccc(Nc4ncc(Cl)c(Nc5ccsc5C(N)=O)n4)c(OC(F)F)c3)CC2)CC1` [Compound I-41, 3-((5-chloro-2-((2-(difluoromethoxy)-4-(4-(4-methylpiperazin-1-yl)piperidin-1-yl)phenyl)amino)pyrimidin-4-yl)amino)thiophene-2-carboxamide], the “AUR-A (IC50, nM)/NUAK2 (IC50, nM)” value at NUAK2 (h) was 30. Besides, the IC50 on NUAK2 (h) is 0.011 to 0.1 µM; against NUAK1, 0.011 to 0.1 µM; at Aurora A it was 0.101 to 1 µM; in the test on MDA-MB-231 cells, 0.202 µM.
With `CN1CCN(c2ccc(Nc3ncc(Cl)c(Nc4ccsc4C(N)=O)n3)c(OC(F)F)c2F)CC1` [Compound I-42, 3-((5-chloro-2-((2-(difluoromethoxy)-3-fluoro-4-(4-methylpiperazin-1-yl)phenyl)amino)pyrimidin-4-yl)amino)thiophene-2-carboxamide], the “AUR-A (IC50, nM)/NUAK2 (IC50, nM)” value at NUAK2 (h) worked out at 86. The IC50 on NUAK2 (h) was 0.011 to 0.1 µM; against NUAK1, 0.011 to 0.1 µM; at Aurora A it was more than 1 µM; in the test on MDA-MB-231 cells, 0.653 µM.
`CN1CCN(C2CCN(c3ccc(Nc4ncc(C(F)(F)F)c(Nc5ccsc5C(N)=O)n4)c(OC(F)F)c3)CC2)CC1` [Compound I-52, 3-((2-((2-(difluoromethoxy)-4-(4-(4-methylpiperazin-1-yl)piperidin-1-yl)phenyl)amino)-5-(trifluoromethyl)pyrimidin-4-yl)amino)thiophene-2-carboxamide]: the IC50 at NUAK2 (h) was 0.0001 to 0.01 µM; at NUAK1 it was 0.0001 to 0.01 µM; on Aurora A, 0.011 to 0.1 µM; with MDA-MB-231 cells, 0.142 µM.
For the molecule `CN1CCCN(C2CCN(c3ccc(Nc4ncc(C(F)(F)F)c(Nc5ccsc5C(N)=O)n4)c(OC(F)F)c3)CC2)CC1` [Compound I-75, 3-((2-((2-(difluoromethoxy)-4-(4-(4-methyl-1,4-diazepan-1-yl)piperidin-1-yl)phenyl)amino)-5-(trifluoromethyl)pyrimidin-4-yl)amino)thiophene-2-carboxamide], the IC50 on NUAK2 (h) is 0.0001 to 0.01 µM; against NUAK1 it was 0.011 to 0.1 µM; at Aurora A, 0.101 to 1 µM; in the test with MDA-MB-231 cells, 0.12 µM.
Consider `CCN1CCN(C2CCN(c3ccc(Nc4ncc(C(F)(F)F)c(Nc5ccsc5C(N)=O)n4)c(OC(F)F)c3)CC2)CC1` [Compound I-77, 3-((2-((2-(difluoromethoxy)-4-(4-(4-ethylpiperazin-1-yl)piperidin-1-yl)phenyl)amino)-5-(trifluoromethyl)pyrimidin-4-yl)amino)thiophene-2-carboxamide], for which the IC50 at NUAK2 (h) lay in the range of 0.0001 to 0.01 µM; against NUAK1 it was 0.0001 to 0.01 µM; at Aurora A, 0.101 to 1 µM.
As to `CC(C)(C)N1CCN(C2CCN(c3ccc(Nc4ncc(C(F)(F)F)c(Nc5ccsc5C(N)=O)n4)c(OC(F)F)c3)CC2)CC1` [Compound I-79, 3-((2-((4-(4-(4-(tert-butyl)piperazin-1-yl)piperidin-1-yl)-2-(difluoromethoxy)phenyl)amino)-5-(trifluoromethyl)pyrimidin-4-yl)amino)thiophene-2-carboxamide], the IC50 at NUAK2 (h) was in the range of 0.011 to 0.1 µM; on NUAK1, 0.011 to 0.1 µM; on Aurora A it was 0.101 to 1 µM.
With `CN1CCN(C2CCN(c3ccc(Nc4ncc(C#N)c(Nc5ccsc5C(N)=O)n4)c(OC(F)F)c3)CC2)CC1` [Compound I-80, 3-((5-cyano-2-((2-(difluoromethoxy)-4-(4-(4-methylpiperazin-1-yl)piperidin-1-yl)phenyl)amino)pyrimidin-4-yl)amino)thiophene-2-carboxamide], the IC50 on NUAK2 (h) is 0.011 to 0.1 µM; at NUAK1, 0.011 to 0.1 µM; at Aurora A, 0.101 to 1 µM.
As for `CN1CCN(C2CCN(c3ccc(Nc4ncc(Cl)c(N[C@@H]5CCC[C@@H]5C(N)=O)n4)c(OC(F)F)c3)CC2)CC1` [Compound I-83, (1S,2R)-2-((5-chloro-2-((2-(difluoromethoxy)-4-(4-(4-methylpiperazin-1-yl)piperidin-1-yl)phenyl)amino)pyrimidin-4-yl)amino)cyclopentane-1-carboxamide], the half-inhibitory concentration (IC50) at NUAK2 (h) is 0.011 to 0.1 µM; against NUAK1, 0.011 to 0.1 µM; at Aurora A it was 0.101 to 1 µM.
For `CN1CCN(c2ccc(Nc3ncc(Cl)c(N[C@@H]4CCC[C@@H]4C(N)=O)n3)c(C(F)(F)F)c2)CC1` [Compound I-84, (1S,2R)-2-((5-chloro-2-((4-(4-methylpiperazin-1-yl)-2-(trifluoromethyl)phenyl)amino)pyrimidin-4-yl)amino)cyclopentane-1-carboxamide], the IC50 is 0.011 to 0.1 µM at NUAK2 (h), 0.101 to 1 µM against NUAK1 and more than 1 µM at Aurora A.
In the same order, the values of `CN1CCN(c2ccc(Nc3ncc(Cl)c(N[C@@H]4CCCC[C@@H]4C(N)=O)n3)c(C(F)(F)F)c2)CC1` [Compound I-85, (1S,2R)-2-((5-chloro-2-((4-(4-methylpiperazin-1-yl)-2-(trifluoromethyl)phenyl)amino)pyrimidin-4-yl)amino)cyclohexane-1-carboxamide] are 0.011 to 0.1 µM, 0.101 to 1 µM and more than 1 µM.
The corresponding values for `CN1CCN(c2ccc(Nc3ncc(Cl)c(N[C@@H]4CCC[C@@H]4C(N)=O)n3)c(OC(F)F)c2)CC1` [Compound I-86, (1S,2R)-2-((5-chloro-2-((2-(difluoromethoxy)-4-(4-methylpiperazin-1-yl)phenyl)amino)pyrimidin-4-yl)amino)cyclopentane-1-carboxamide] are 0.011 to 0.1 µM, 0.011 to 0.1 µM and more than 1 µM.
